“And” between values parts separate entries of the source, which are not always exact repeats. Equal entries are not always repeated. Structures can show the parent of a compound that is named as a salt. Where two headings read alike, the source gives them in different places.

We go through eight molecules from patent US4539319A (priority 1982, dated 1985).

The subject of one series is ST from E coli P16. The arrangement: species or system mice. The settings on record: mouse, in vivo.
Series [1] in a line: Determination of Therapeutic Ratios: LD50 in suckling 8 day old mice. The settings on record: mouse, in vivo. As for the experimental part: LD50 determinations were made by dosing groups of suckling 8 day old mice with appropriate concentrations orally. Deaths were noted over a 7 day period and LD50s calculated using a probit regression program. ED50 determinations were carried out by dosing groups of 6-8 day old mice with appropriate concentrations orally. The percentage fluid inhibition was determined as above and ED50s calculated using a log/linear regression analysis and the formula given in the British Pharmacopoeia.
For computation of T.R.'s the standard errors of ED50 values were corrected to normalise the errors and the T.R.'s expressed as the ratio (LD50 /ED50) and standard deviation range (Table 3).

The test system of the next series is ST from E coli P155. The arrangement: species or system mice. To be noted: mouse, in vivo.
The test system of another series is E coli B44. Nature of the series: Protection of Neonatal Mice from Lethal Enteropathogenic E coli Infection. In kind it is in vivo, E coli B44 infection in 4 day old mice. To be noted: 10 mg/kg b.i.d.; for % mortality in mice dosed with compound: n = 60; for % Reduction in mortality: versus placebo. The method, then:
4 day old mice were orally dosed with 50 μl of phosphate buffered saline containing 1×10^5 organisms/ml of E coli B44. The mice were then dosed b.i.d. with either placebo or drug for four days commencing 16 hours after infection. The animals were left with their mothers throughout the experiment and a daily record of deaths was made. The experiment was terminated when no mortality was seen over a 24 hour period. (Usually 7-10 days after infection). The mortality in the drug group was then compared with the mortality in the placebo group using the following formula:
% Reduction in mortality=[(MP -MD)/MP]× 100
MP =mortality in group having placebo
MD =mortality in group receiving drug
Statistical analysis was performed using 2×2 contingency tables (single tailed `p`).

Series [2] relates to enterotoxin (culture filtrate) from enteropathogenic E coli strain P16. Also noted: species or system piglets. To be noted: in vivo; hydrochloride.
Another series concerns 8 Bromo cyclic GMP. The arrangement: species or system mice. The settings on record: mouse, in vivo.
The subject of series [3] is enterotoxin induced secretion. Nature of the series: animal or person. Type of series: in vivo, mice. The settings on record: Mus musculus, po.
The test system of the next series is ST from E coli 431. The arrangement: species or system mice. To be noted: mouse, in vivo.

On to `CN(C)C(=N)c1ccc(OCc2ccccc2)c2c1CCCC2` [Example 15, 4-Benzyloxy-N',N'-dimethyl-5,6,7,8-tetrahydro-1-naphthamidine, hydrochloride], for which the “% inhibition” value in the series with ST from E coli P16 (hydrochloride) is 39% and 22%.

For the molecule `COc1ccc(C(=N)N2CCCCC2)c2c1CCCC2.Cl` [Example 10, 1-[Imino(4-methoxy-5,6,7,8-tetrahydro-1-naphthyl)-methyl]piperidine, hydrochloride], in the series on ST from E coli P16 (hydrochloride), the “% inhibition” value was 33% and 35%.

Consider “4-Methoxy-N,N-di-amylamine-5,6,7,8-tetrahydro-1-naphthamidine, hydrochloride [Example 13]”, for which the “% inhibition” value with ST from E coli P16 (hydrochloride) is 38% and 33%.

`CCCCN(CCCC)C(=N)c1ccc(OC(C)C)c2c1CCCC2` [Example 14, N',N'-di-n-butyl-4-isopropyloxy-5,6,7,8-tetrahydro-1-naphthamidine, hydrochloride]: in the series with ST from E coli P16, the “% inhibition” value is recorded as 52%.

With `CCCCN(CCCC)C(=N)c1ccc(OC)c2c1CCCC2` [Example 11, N',N'-Di-n-butyl-4-methoxy-5,6,7,8-tetrahydro-1-naphthamidine, hydrochloride], in the series on ST from E coli P16, the “% inhibition (Table 2)” value amounted to 59%. Moreover, the “% inhibition” value with ST from E coli P16 (hydrochloride) is 59% and 32%; in the series on ST from E coli P155, 31%; in the series with 8 Bromo cyclic GMP, 42%; in the series on ST from E coli 431 it was 47%. Further, the selectivity ratio in series [1] (po, therapeutic ratio (T.R.), standard errors of ED50 corrected, range (3.9-8.1)) was determined as 5.6. In addition, the LD50 at 168 h in series [1] (oral, 8 day old mice, deaths over 7 days, range (83-91)) was 87 mg/kg. For the same molecule, the “% mortality in mice dosed with compound” value in the series on E coli B44 (day 2 post infection, control 31) was found to be 25%; in the series with E coli B44 (day 3 post infection, control 68, *P < 0.05) it was 47%; in the series on E coli B44 (day 4 post infection, control 79, **P < 0.01), 53%; in the series with E coli B44 (day 5 post infection, control 84, ***P < 0.001), 57%; in the series with E coli B44 (day 6 post infection, control 84, **P < 0.01) it was 58%; in the series on E coli B44 (day 7 post infection, control 84, **P < 0.01), 58%. Besides, the “% Reduction in mortality” value with E coli B44 (day 2 post infection) stood at 18%; with E coli B44 (day 3 post infection) it was 31%; with E coli B44 (day 4 post infection) it was 33%; in the series on E coli B44 (day 5 post infection), 32%; with E coli B44 (day 6 post infection) it was 30%; in the series with E coli B44 (day 7 post infection), 30%. In series [2], the “Mean scour score during 7 hr observation period ± SEM” value is 2.1 ± 0.3 and 1.2 ± 0.2. Also, the ED50 in series [3] was 16 mg/kg.

Take `CCCCN(CCCC)C(=N)c1ccc(O)c2c1CCCC2` [Example 16, N',N'-di-n-butyl-4-hydroxy-5,6,7,8-tetrahydro-1-naphthamidine hydrochloride]: the “% inhibition” value in the series on ST from E coli P16 (hydrochloride) is 58% and 41%.

On to `CCCN(CCC)C(=N)c1ccc(OC)c2c1CCCC2` [Example 9, 4-methoxy-N',N'-di-n-propyl-5,6,7,8-tetrahydro-1-naphthamidine, hydrochloride], for which the “% inhibition” value in the series with ST from E coli P16 (hydrochloride) is 43% and 29%.

As to `CCCCN(CCCC)C(=N)c1ccc(OCc2ccccc2)c2c1CCCC2` [Example 12, N',N'-Di-n-butyl-4-benzyloxy-5,6,7,8-tetrahydro-1-naphthamidine, hydrochloride], the “% inhibition” value in the series with ST from E coli P16 (hydrochloride) is 70% and 52%.
